Experimental data as given in PubChem BioAssay (NCI).
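These data come from cells grown in 96-well plates and exposed to compound for 48 hours at five concentrations. GI50: concentration for 50% inhibition of growth. At the TGI there is no net growth.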

Legend:
Experiment in all cases: NCI tumour cell line growth inhibition, 48 h
NCI-H522 lung = test system: NCI-H522 lung
OVCAR-5 ovarian = test system: OVCAR-5 ovarian
MOLT-4 leukemia = test system: MOLT-4 leukemia
HCT-15 colon = test system: HCT-15 colon
UACC-62 melanoma = test system: UACC-62 melanoma
U251 CNS = test system: U251 CNS
OVCAR-3 ovarian = test system: OVCAR-3 ovarian
HT29 colon = test system: HT29 colon
NCI/ADR-RES ovarian = test system: NCI/ADR-RES ovarian
MCF7 breast = test system: MCF7 breast

Compound	TGI (NCI-H522 lung) [µM]	TGI (OVCAR-5 ovarian) [µM]	TGI (MOLT-4 leukemia) [µM]	TGI (HCT-15 colon) [µM]	TGI (UACC-62 melanoma) [µM]	TGI (U251 CNS) [µM]	TGI (OVCAR-3 ovarian) [µM]	TGI (HT29 colon) [µM]	GI50 (NCI/ADR-RES ovarian) [µM]	TGI (NCI/ADR-RES ovarian) [µM]	GI50 (NCI-H522 lung) [µM]	GI50 (OVCAR-5 ovarian) [µM]	GI50 (HCT-15 colon) [µM]	GI50 (UACC-62 melanoma) [µM]	GI50 (U251 CNS) [µM]	GI50 (OVCAR-3 ovarian) [µM]	GI50 (HT29 colon) [µM]	GI50 (MCF7 breast) [µM]	TGI (MCF7 breast) [µM]
COc1ccc(NC(=O)/C(Cc2cc(=O)oc3cc(O)ccc23)=N\NC(C)(C)C)c(OC)c1	> 100	> 100	> 100	> 100	> 100	> 100	> 100	> 100	–	–	–	–	–	–	–	–	–	–	–
O=C(CC1(O)C(=O)N(Cc2ccccc2)c2ccc(F)cc21)c1ccc(C(=O)NCC2CCC3(CC2)OOC2(CCCCC2)OO3)cc1 (stereo not given)	0.396	4.89	–	3.2	5.61	0.674	0.634	1.28	0.373	1.14	0.187	1.17	0.867	2.18	0.251	0.254	0.362	1.92	> 31.9
[N-]=[N+]=N[C@H]1C[C@@H](CO)O[C@H]1n1cnc2c(N)ncnc21	> 100	> 100	–	–	–	> 100	> 100	> 100	–	–	–	–	–	–	–	–	–	–	–
C=C(C)[C@@H]1CC[C@]2(C)[C@H](CC=C3[C@@H]4CC(C)(C)CC[C@]4(C(N)=O)CC[C@]32C)[C@@]1(C)CCC#N	> 100	> 100	–	> 100	9.15	> 100	> 100	> 100	3.75	> 100	3.07	4.35	3.14	2.59	4.35	3.49	3.48	2.81	24.5
NC(=O)C12CC3CC(CC(F)(C3)C1)C2	> 100	> 100	> 100	–	> 100	> 100	> 100	> 100	–	–	–	–	–	–	–	–	–	–	–
Cc1[nH]c2ccccc2c1C(=O)/C=C/c1ccccc1O	> 100	> 100	> 100	–	> 100	> 100	> 100	> 100	–	–	–	–	–	–	–	–	–	–	–
CC1c2c(Cl)nc3ccccc3c2Oc2c1c(Cl)nc1ccccc21	> 100	> 100	> 100	–	–	> 100	> 100	> 100	–	–	–	–	–	–	–	–	–	–	–
O=C(/C=C/c1cccc2ccccc12)c1ccccc1Cl	27.5	–	8.82	24.3	27.3	23.7	25.6	26.4	–	–	–	–	–	–	–	–	–	–	–
O=C(CSc1nc2ccccc2nc1-c1ccccc1)Nc1ccc(F)cc1	> 100	> 100	–	> 100	> 100	> 100	> 100	96.5	29.9	> 100	24.2	> 100	48.7	48.5	38.8	28	21.5	57.2	> 100
CC1CN(C(=O)CN2CCC(CCCCN(C)C)CC2)c2ccccc2NC1=O (stereo not given)	–	> 100	> 100	> 100	> 100	> 100	> 100	> 100	–	–	–	–	–	–	–	–	–	–	–
Cc1c2c(C#N)nccc2c(C)c2c1c1ccccc1n2Cc1ccccc1	–	> 100	–	> 100	> 100	> 100	> 100	> 100	–	> 100	–	–	–	–	–	–	–	–	> 100
COC1(OC)C(N(C)C)=C(Cl)C(=O)/C1=C/C=O	–	> 100	> 100	> 100	> 100	> 100	> 100	> 100	–	–	–	–	–	–	–	–	–	–	–
Cc1cc(Cl)ccc1NC(=O)C(=O)Cc1nc2ccccc2o1	> 100	> 100	> 100	> 100	> 100	> 100	> 100	> 100	–	–	–	–	–	–	–	–	–	–	–
CCOC(=O)C(=[N+]=[N-])[Si](C)(C)C	–	> 100	–	> 100	> 100	69.2	> 100	> 100	–	–	–	–	–	–	–	–	–	–	–
CCOc1ccc(NC(=O)C(=O)CC(=O)c2c(C)n([O-])c3ccccc3[n+]2=O)cc1	> 100	> 100	> 100	> 100	> 100	> 100	> 100	> 100	–	–	–	–	–	–	–	–	–	–	–
O=C(O)Cc1cc(Cl)ccc1O	> 100	> 100	–	> 100	> 100	> 100	> 100	> 100	–	> 100	–	–	–	–	–	–	–	–	> 100
CC(=O)c1sc(Nc2nnc(-c3ccc(-c4nnc(Nc5nc(C)c(C(C)=O)s5)o4)cc3)o2)nc1C	> 10	> 10	> 100	> 100	> 100	> 100	> 100	> 100	–	–	–	–	–	–	–	–	–	–	–
